System: clonal stem cells (AP14)
Experiment: Neuronal differentiation of clonal adult stem cell cultures (Map2ab immunofluorescence)
Type: cell-based, rat
Method: Cell Culture. For proliferating conditions, clonal stem cells (AP14) were cultured in Dulbecco's Modified Eagles Medium/Ham's F12 (DMEM/F12, 1:1) containing N2 supplement (Gibco BRL, Gaithersburg, Md.) and 20 ng/ml rhFGF-2 (provided by A. Baird, Prizm Pharmaceuticals Inc., La Jolla, Calif.). Culture dishes (Becton Dickinsin Labware, Lincoln Park, N.J.) were coated with polyomithine and mouse laminin as previously described by Ray, et al., Proliferation, differentiation and long-term culture of primary hippocampal neurons, Proc Natl Acad Sci USA 90:3602-3606 (1993). For differentiation experiments, cells were plated into polyornithine/laminin coated glass chamber slides (Nunc, Naperville, Ill.) at a density of 2.5—103 per cm2. […] Louis, Mo.). For further differentiation, the medium was replaced by N2 medium containing 0.5% FBS and one of the following: sterile water (control solvent), mouse 2.55 NGF (50 ng/ml, Boehringer Mannheim, Indianapolis, Ind.), rhBDNF (20 ng/ml, Alomone Labs, Jerusalem, Israel), rhNT-3 (40 ng/ml, Genentech, South San Francisco, Calif.). […]
Immunofluorescence. […] Both the average percentage and the absolute number +/− SEM of immunofluorescent cells were determined by counting 10 or 50 high power fields (20×) visualized under fluorescence. The total number of cells was counted using nuclear counterstaining with 4′,6diamidino-2-phenylindole (DAPI, Sigma). […]

## CC1=C(/C=C/C(C)=C/C=C/C(C)=C/C(=O)O)C(C)(C)CCC1 [RA, all-trans retinoic acid]
FGF-2 withdrawal, 500 nM RA plus 0.5% FBS 6 days, then 6 days 0.5% serum alone
  number of Map2ab-immunoreactive (IR) neurons relative to growth factor withdrawal and 0.5% serum alone: more than tripled
RA for 6 days, then RA withdrawn for additional 6 days
  increase in number of MAP2ab-positive cells: 3 fold

Reference: US6767738B1, “Method of isolating adult mammalian CNS-derived progenitor stem cells using density gradient centrifugation” (The Salk Institute for Biological Studies, priority 1999, dated 2004)
